# PubChem BioAssay (NCI)
#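 In this assay, cells in 96-well plates receive the compound at five concentrations for 48 hours. Endpoints are linearly interpolated between the surrounding concentrations. GI50 marks 50% less growth. TGI denotes the concentration required for complete inhibition of growth.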
# Experiments:
# Experiment in all cases: NCI tumour cell line growth inhibition, 48 h
# [1] = test system: SK-MEL-5 melanoma
# [2] = test system: SNB-19 CNS
# [3] = test system: OVCAR-4 ovarian
# [4] = test system: SK-MEL-2 melanoma
# [5] = test system: COLO 205 colon
# [6] = test system: T-47D breast
# [7] = test system: NCI-H226 lung
# [8] = test system: NCI-H460 lung
# [9] = test system: HCT-15 colon
# [10] = test system: HL-60(TB) leukemia
# [11] = test system: K-562 leukemia
# [12] = test system: IGROV1 ovarian
# [13] = test system: SNB-75 CNS
# [14] = test system: 786-0 renal
# [15] = test system: OVCAR-8 ovarian
# [16] = test system: HCT-116 colon
# [17] = test system: HT29 colon
# [18] = test system: LOX IMVI melanoma
# [19] = test system: UACC-62 melanoma
# [20] = test system: UACC-257 melanoma
# [21] = test system: NCI-H23 lung
# [22] = test system: MCF7 breast
# [23] = test system: PC-3 prostate
# [24] = test system: UO-31 renal
# [25] = test system: MDA-MB-231 breast
# [26] = test system: NCI/ADR-RES ovarian
# [27] = test system: NCI-H522 lung
# [28] = test system: BT-549 breast
# [29] = test system: RPMI-8226 leukemia
# [30] = test system: TK-10 renal
# [31] = test system: A498 renal
# [32] = test system: HOP-92 NSCLC
# [33] = test system: HOP-62 NSCLC
# [34] = test system: CCRF-CEM leukemia
# [35] = test system: SK-OV-3 ovarian
# [36] = test system: ACHN renal
# [37] = test system: OVCAR-3 ovarian
# [38] = test system: SF-539 CNS
# [39] = test system: SN12C renal
# [40] = test system: A549 NSCLC
# [41] = test system: U251 CNS
# [42] = test system: SW-620 colon
# [43] = test system: KM12 colon
# [44] = test system: EKVX NSCLC
# [45] = test system: SK-MEL-28 melanoma
# [46] = test system: OVCAR-5 ovarian
# [47] = test system: HCC-2998 colon
# [48] = test system: M14 melanoma
# [49] = test system: MDA-MB-435
# [50] = test system: DU-145 prostate
# [51] = test system: SF-268 CNS
# [52] = test system: MOLT-4 leukemia
# [53] = test system: MALME-3M melanoma
# [54] = test system: SF-295 CNS
# [55] = test system: CAKI-1 renal
# [56] = test system: HS 578T breast
# [57] = test system: RXF 393 renal
smiles,measurement,setting,value
C=C1C(=O)O[C@H]2[C@H]1CC/C(COC(=O)NCc1ccc(Cn3c(=O)sn(CCCl)c3=O)cc1)=C\CC[C@@]1(C)O[C@@H]21,GI50,[1],1.7 µM
same,TGI,[1],3.24 µM
same,GI50,[2],11.9 µM
same,TGI,[2],26.1 µM
same,GI50,[3],1.92 µM
same,TGI,[3],4.01 µM
same,GI50,[4],10.6 µM
same,TGI,[4],24.7 µM
same,GI50,[5],1.84 µM
same,TGI,[5],3.6 µM
same,GI50,[6],1.97 µM
same,TGI,[6],5.16 µM
same,GI50,[7],17.2 µM
same,TGI,[7],37.3 µM
same,GI50,[8],15 µM
same,TGI,[8],32.5 µM
same,GI50,[9],1.85 µM
same,TGI,[9],3.82 µM
same,GI50,[10],1.92 µM
same,TGI,[10],4.96 µM
same,GI50,[11],2.07 µM
same,TGI,[11],5.63 µM
same,GI50,[12],2.5 µM
same,TGI,[12],6.79 µM
same,GI50,[13],7.65 µM
same,TGI,[13],21 µM
same,GI50,[14],1.79 µM
same,TGI,[14],3.27 µM
same,GI50,[15],2.04 µM
same,TGI,[15],4.81 µM
same,GI50,[16],1.62 µM
same,TGI,[16],3.08 µM
same,GI50,[17],2.16 µM
same,TGI,[17],4.77 µM
same,GI50,[18],1.69 µM
same,TGI,[18],3.12 µM
same,GI50,[19],1.86 µM
same,TGI,[19],3.95 µM
same,GI50,[20],1.85 µM
same,TGI,[20],4.98 µM
same,GI50,[21],2.18 µM
same,TGI,[21],5.2 µM
same,GI50,[22],1.91 µM
same,TGI,[22],4.4 µM
same,GI50,[23],8.09 µM
same,TGI,[23],21 µM
same,GI50,[24],1.65 µM
same,TGI,[24],3.25 µM
same,GI50,[25],1.89 µM
same,TGI,[25],3.68 µM
same,GI50,[26],26.3 µM
same,TGI,[26],77.8 µM
same,GI50,[27],1.38 µM
same,TGI,[27],2.98 µM
same,GI50,[28],1.45 µM
same,TGI,[28],2.78 µM
same,GI50,[29],2.37 µM
same,TGI,[29],6.25 µM
same,GI50,[30],1.77 µM
same,TGI,[30],3.43 µM
same,GI50,[31],11.5 µM
same,TGI,[31],23.8 µM
same,GI50,[32],1.5 µM
same,TGI,[32],3.22 µM
same,GI50,[33],16.3 µM
same,TGI,[33],31.5 µM
same,GI50,[34],1.73 µM
same,TGI,[34],7 µM
same,GI50,[35],16.1 µM
same,TGI,[35],29.7 µM
same,GI50,[36],1.54 µM
same,TGI,[36],2.87 µM
same,GI50,[37],1.53 µM
same,TGI,[37],2.88 µM
same,GI50,[38],1.82 µM
same,TGI,[38],3.26 µM
same,GI50,[39],2.01 µM
same,TGI,[39],4.28 µM
same,GI50,[40],14.2 µM
same,TGI,[40],29.1 µM
same,GI50,[41],6.79 µM
same,TGI,[41],20.2 µM
same,GI50,[42],1.17 µM
same,TGI,[42],2.69 µM
same,GI50,[43],13.4 µM
same,TGI,[43],27.7 µM
same,GI50,[44],1.99 µM
same,TGI,[44],5.25 µM
same,GI50,[45],1.74 µM
same,TGI,[45],3.38 µM
same,GI50,[46],1.97 µM
same,TGI,[46],4.19 µM
same,GI50,[47],17.3 µM
same,TGI,[47],33 µM
same,GI50,[48],1.82 µM
same,TGI,[48],3.65 µM
same,GI50,[49],1.74 µM
same,TGI,[49],3.47 µM
same,GI50,[50],1.72 µM
same,TGI,[50],3.14 µM
same,GI50,[51],3.73 µM
same,TGI,[51],14.6 µM
same,GI50,[52],1.85 µM
same,TGI,[52],5.92 µM
same,GI50,[53],1.72 µM
same,TGI,[53],3.46 µM
same,GI50,[54],16.4 µM
same,TGI,[54],30.3 µM
same,GI50,[55],1.76 µM
same,TGI,[55],3.71 µM
same,GI50,[56],12.1 µM
same,TGI,[56],55.9 µM
same,GI50,[57],1.18 µM
same,TGI,[57],2.64 µM
